Test results: ChEMBL document CHEMBL2396541, “Synthesis and in vitro evaluation of glycosyl derivatives of luteinizing hormone-releasing hormone (LHRH)” (Bioorg Med Chem, 2013); call rule not given here

Columns and labels:
Caco-2 = assay: Prodrug activation in human Caco2 cell homogenates assessed as LHRH release after 2 hrs; format: cell-based; settings: caco-2, 2 h
[1] = Half life in human Caco2 cell homogenates at 200 uM by LC-MS analysis; format: ADME, cell-based; settings: Caco-2 cell homogenates
[2] = Apparent permeability across human Caco2 cells at 200 uM up to 120 mins by LC-MS analysis; format: ADME, cell-based; settings: Caco-2
[3] = Half life in human plasma; format: ADME, cell-free
[4] = Half life in human; format: ADME, organism-based; settings: in vivo

Drug metabolism (Caco-2) | half-life at 200 µM [1] [min] | Papp at 2 h, 200 µM [2] [×10⁻⁶ cm/s] | half-life [3] [min] | half-life [4] [min] | SMILES
Not Active | 51 | 1.08 | – | – | CC(C)C[C@H](NC(=O)CNC(=O)[C@H](Cc1ccc(O)cc1)NC(=O)[C@H](CO)NC(=O)[C@H](Cc1c[nH]c2ccccc12)NC(=O)[C@H](Cc1cnc[nH]1)NC(=O)[C@H](CCC(=O)O)NC(=O)CCC(=O)N[C@@H]1O[C@H](CO)[C@H](O)[C@H](O)[C@H]1O)C(=O)N[C@@H](CCCNC(=N)N)C(=O)N1CCC[C@H]1C(=O)NCC(N)=O
Not Active | 92.2 | 1.62 | – | – | CC(C)C[C@H](NC(=O)CNC(=O)[C@H](Cc1ccc(O)cc1)NC(=O)[C@H](CO)NC(=O)[C@H](Cc1c[nH]c2ccccc12)NC(=O)[C@H](Cc1cnc[nH]1)NC(=O)[C@H](CCC(N)=O)NC(=O)CCC(=O)N[C@@H]1O[C@H](CO)[C@H](O)[C@H](O)[C@H]1O)C(=O)N[C@@H](CCCNC(=N)N)C(=O)N1CCC[C@H]1C(=O)NCC(N)=O
– | 186 | – | – | – | CC(C)C[C@H](NC(=O)[C@@H](Cc1c[nH]c2ccccc12)NC(=O)[C@H](Cc1ccc(O)cc1)NC(=O)[C@H](CO)NC(=O)[C@H](Cc1c[nH]c2ccccc12)NC(=O)[C@H](Cc1c[nH]cn1)NC(=O)[C@@H]1CCC(=O)N1)C(=O)N[C@@H](CCCNC(=N)N)C(=O)N1CCC[C@H]1C(=O)NCC(N)=O [TRIPTORELIN]
Not Active | 73.5 | 2.31 | – | – | CC(C)C[C@H](NC(=O)CNC(=O)[C@H](Cc1ccc(O)cc1)NC(=O)[C@H](CO)NC(=O)[C@H](Cc1c[nH]c2ccccc12)NC(=O)[C@H](Cc1cnc[nH]1)NC(=O)[C@H](CCC(N)=O)NC(=O)CCC(=O)N[C@@H]1O[C@H](CO)[C@@H](O)[C@H](O)[C@H]1O)C(=O)N[C@@H](CCCNC(=N)N)C(=O)N1CCC[C@H]1C(=O)NCC(N)=O
– | 30.4 | – | – | – | CC(C)C[C@H](NC(=O)CNC(=O)[C@H](Cc1ccc(O)cc1)NC(=O)[C@H](CO)NC(=O)[C@H](Cc1c[nH]c2ccccc12)NC(=O)[C@H](Cc1cnc[nH]1)NC(=O)[C@@H](N)CCC(=O)O)C(=O)N[C@@H](CCCNC(=N)N)C(=O)N1CCC[C@H]1C(=O)NCC(N)=O
Not Active | 56.7 | 2.65 | – | – | CC(C)C[C@H](NC(=O)CNC(=O)[C@H](Cc1ccc(O)cc1)NC(=O)[C@H](CO)NC(=O)[C@H](Cc1c[nH]c2ccccc12)NC(=O)[C@H](Cc1cnc[nH]1)NC(=O)[C@H](CCC(=O)O)NC(=O)CCC(=O)N[C@@H]1O[C@H](CO)[C@@H](O)[C@H](O)[C@H]1O)C(=O)N[C@@H](CCCNC(=N)N)C(=O)N1CCC[C@H]1C(=O)NCC(N)=O
– | 28.4 | – | – | – | CC(C)C[C@H](NC(=O)CNC(=O)[C@H](Cc1ccc(O)cc1)NC(=O)[C@H](CO)NC(=O)[C@H](Cc1c[nH]c2ccccc12)NC(=O)[C@H](Cc1cnc[nH]1)NC(=O)[C@@H](N)CCC(=O)O)C(=O)N[C@@H](CCCNC(=N)N)C(=O)N1CCC[C@H]1C(=O)NCC(=O)N[C@@H]1O[C@H](C(N)=O)[C@@H](O)[C@H](O)[C@H]1O
Not Active | 77 | 2.87 | – | – | CC(C)C[C@H](NC(=O)CNC(=O)[C@H](Cc1ccc(O)cc1)NC(=O)[C@H](CO)NC(=O)[C@H](Cc1c[nH]c2ccccc12)NC(=O)[C@H](Cc1cnc[nH]1)NC(=O)[C@H](CCC(=O)O)NC(=O)CCC(=O)N[C@@H]1O[C@H](CO)[C@@H](O[C@@H]2O[C@H](CO)[C@H](O)[C@H](O)[C@H]2O)[C@H](O)[C@H]1O)C(=O)N[C@@H](CCCNC(=N)N)C(=O)N1CCC[C@H]1C(=O)NCC(N)=O
Not Active | 133 | 0.76 | – | – | CC(C)C[C@H](NC(=O)CNC(=O)[C@H](Cc1ccc(O)cc1)NC(=O)[C@H](CO)NC(=O)[C@H](Cc1c[nH]c2ccccc12)NC(=O)[C@H](Cc1cnc[nH]1)NC(=O)[C@H](CCC(N)=O)NC(=O)CCC(=O)N[C@@H]1O[C@H](CO)[C@@H](O[C@@H]2O[C@H](CO)[C@H](O)[C@H](O)[C@H]2O)[C@H](O)[C@H]1O)C(=O)N[C@@H](CCCNC(=N)N)C(=O)N1CCC[C@H]1C(=O)NCC(N)=O
– | 32.6 | 0.398 | 3 | – | CC(C)C[C@H](NC(=O)CNC(=O)[C@H](Cc1ccc(O)cc1)NC(=O)[C@H](CO)NC(=O)[C@H](Cc1c[nH]c2ccccc12)NC(=O)[C@H](Cc1cnc[nH]1)NC(=O)[C@@H]1CCC(=O)N1)C(=O)N[C@@H](CCCNC(=N)N)C(=O)N1CCC[C@H]1C(=O)NCC(N)=O [GONADORELIN]
– | 133 | – | – | 3 | CC(C)C[C@H](NC(=O)[C@@H](Cc1c[nH]c2ccccc12)NC(=O)[C@H](Cc1ccc(O)cc1)NC(=O)[C@H](CO)NC(=O)[C@H](Cc1c[nH]c2ccccc12)NC(=O)[C@H](Cc1cnc[nH]1)NC(=O)[C@H](CCC(N)=O)NC(=O)CCC(=O)N[C@@H]1O[C@H](CO)[C@@H](O[C@@H]2O[C@H](CO)[C@H](O)[C@H](O)[C@H]2O)[C@H](O)[C@H]1O)C(=O)N[C@@H](CCCNC(=N)N)C(=O)N1CCC[C@H]1C(=O)NCC(N)=O
